Reference: US8168592B2 (Amgen Inc., priority 2005, dated 2012)
Square brackets hold non-standard residues; d marks the D form. Peptide text beside a SMILES is read from it. 1Nal = N[C@@H](Cc1cccc2ccccc12)C(=O)O

Key:
[1] = molecular target: T1, CGRP1 receptor (human neuroblastoma cell (SK-N-MC) membrane) (Homo sapiens, UniProt O60894+Q16602); assay: CGRP1 binding assay (125I-hαCGRP displacement)
T1 construct: human neuroblastoma cell (SK-N-MC) membrane suspension; purchased PerkinElmer; host or cells: SK-N-MC human neuroblastoma cell membranes (endogenous receptor)
T1 sequence (Q16602 23-461): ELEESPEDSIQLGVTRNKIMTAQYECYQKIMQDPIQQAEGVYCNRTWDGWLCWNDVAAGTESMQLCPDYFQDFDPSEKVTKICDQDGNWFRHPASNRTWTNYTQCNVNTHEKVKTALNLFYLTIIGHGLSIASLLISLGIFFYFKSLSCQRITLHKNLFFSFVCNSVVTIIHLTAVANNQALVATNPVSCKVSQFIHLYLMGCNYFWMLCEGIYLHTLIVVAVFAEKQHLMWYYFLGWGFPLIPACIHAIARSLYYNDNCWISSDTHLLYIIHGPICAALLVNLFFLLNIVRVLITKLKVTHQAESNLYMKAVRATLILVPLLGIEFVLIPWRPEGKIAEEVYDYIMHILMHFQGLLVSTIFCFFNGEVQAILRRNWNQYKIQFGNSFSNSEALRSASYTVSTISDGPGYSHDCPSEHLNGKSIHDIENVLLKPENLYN
T1 sequence (O60894 27-148): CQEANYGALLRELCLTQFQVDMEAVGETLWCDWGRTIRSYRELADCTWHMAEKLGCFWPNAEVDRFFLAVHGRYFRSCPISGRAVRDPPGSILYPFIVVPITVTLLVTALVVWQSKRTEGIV
Experimental: CGRP1 binding experiments. […] The plates were incubated at room temperature for 2 hour with shaking at 60 rpm, then the contents of each well were filtered over 0.5% polyethyleneimine (PEI)-treated (at least one hour) GF/C 96-well filter plates. The GF/C filter plates were washed 6 times with ice-cold 50 mM Tris, pH 7.5 and dried in an oven at 55 C for 1 hour. The bottoms of the GF/C plates were then sealed, and 40 μl Microscint™ 20 was added to each well, then the tops of the GF/C plates were sealed with TopSeal™-A, a press-on adhesive sealing film, and the GF/C plates were counted with TopCount NXT (Packard). The data were analyzed by using ActivityBase (IDBS) or Prizm (GraphPad) software.

[2] = in vitro stability in 10% rat plasma, LC-MS/MS; type: in vitro ADME; conditions: room temperature
Experimental: (§1) Consequently, the stability of select, non-PEGylated analogs was evaluated in vitro in the presence of 10% rat or human plasma. Briefly, samples of each peptide were diluted to 100 ng/ml into PBS containing 10% of rat or human plasma. Each sample was then incubated at room temperature and analyzed by LC-MS/MS to quantitate the intact peptide remaining at select time points over 6 hours.

[3] = in vitro stability in 10% human plasma, LC-MS/MS; type: in vitro ADME; conditions: room temperature
Experimental: as §1

CGRP1 receptor = molecular target: T2, CGRP1 receptor (Homo sapiens, UniProt O60894+Q16602); assay: in vitro CGRP1 receptor mediated cAMP assay in SK-N-MC cells; type: cell-based
T2 construct: SK-N-MC cells express CRLR and RAMP1, which form CGRP1 receptor; endogenous in cells; host or cells: SK-N-MC human neuroblastoma cells
T2 sequence (Q16602 23-461): as the sequence (Q16602 23-461) above
T2 sequence (O60894 27-148): as the sequence (O60894 27-148) above
How it was run: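 Intracellular cAMP served as the Gs-coupled CGRP1 readout in endogenously expressing SK-N-MC cells. After a 15-minute room-temperature step in plasma-free medium, cell lysates (30 minutes, 37° C) went into a competitive ELISA with a cAMP-AP conjugate and anti-cAMP antibody for 1 hour, then a 30-minute substrate enhancer step before reading.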

[4] = read-out: time at which 50% remains (converted)
[5] = read-out: time at which 50% depleted
[6] = read-out: time at which 50% depleted / detectable

CC(C)[C@H](NC(=O)[C@@H](N)Cc1ccccc1)C(=O)N1CCC[C@H]1C(=O)N[C@H](C(=O)N[C@@H](CC(=O)O)C(=O)N[C@@H](C(=O)NCC(=O)N1CCC[C@H]1C(=O)N[C@@H](Cc1ccccc1)C(=O)N[C@@H](C)C(=O)N[C@@H](Cc1ccccc1)C(N)=O)C(C)C)[C@@H](C)O [compound 711]
Ki ([1]; Table 3B): > 1000 nM

CC(C)[C@H](NC(=O)[C@H](CC(=O)O)NC(=O)[C@@H](NC(=O)[C@@H]1CCCN1C(=O)[C@@H](NC(=O)[C@@H](N)Cc1ccccc1)C(C)C)[C@@H](C)O)C(=O)NCC(=O)N1CCC[C@@H]1C(=O)N[C@@H](Cc1ccccc1)C(=O)N[C@@H](C)C(=O)N[C@@H](Cc1ccccc1)C(N)=O [compound 713]
Ki ([1]; Table 3B): > 1000 nM

CC(C)C[C@H](NC(=O)CNC(=O)[C@H](C)NC(=O)[C@H](CC(C)C)NC(=O)[C@H](CCCNC(=N)N)NC(=O)[C@H](Cc1c[nH]cn1)NC(=O)[C@@H](NC(=O)[C@@H](NC(=O)[C@@H](N)Cc1cccc2ccccc12)C(C)C)[C@@H](C)O)C(=O)N[C@@H](CC(C)C)C(=O)N[C@@H](CO)C(=O)N[C@@H](CCCNC(=N)N)C(=O)N[C@@H](CO)C(=O)NCC(=O)NCC(=O)N[C@H](C(=O)N[C@H](C(=O)N[C@@H](CCCCN)C(=O)N[C@@H](CC(N)=O)C(=O)N[C@@H](CC(N)=O)C(=O)N[C@@H](Cc1ccccc1)C(=O)N[C@H](C(=O)N1CCC[C@H]1C(=O)N[C@H](C(=O)N[C@@H](CC(=O)O)C(=O)N[C@H](C(=O)NCC(=O)N1CCC[C@H]1C(=O)N[C@@H](Cc1ccccc1)C(=O)N[C@@H](C)C(=O)N[C@@H](Cc1ccccc1)C(N)=O)C(C)C)[C@@H](C)O)C(C)C)C(C)C)C(C)C [compound 701] (H-[1Nal]VTHRLAGLLSRSGGVVKNNFVPTDVGPFAF-NH2)
Ki ([1]; Table 3B): 0.14 nM

Ac-WVTHRLAGLLSRSGGVVKNNFVPTDVGPFAF-NH2 [compound 684]
Ki ([1]; Table 3B): 0.08 nM

Ac-WVTHQLAGLLSQSGGVVRKNFVPTDVGPFAF-NH2 [SEQ ID NO:39]
time at which about 10% of the starting concentration remains [2]: about 5 hours | half-life at 100 ng/ml [2, 4]: ~90 min | time at which about 10% of the starting concentration remains [3]: about 4 hours | half-life at 100 ng/ml [3, 4]: ~60 min

CC(=O)N[C@@H](Cc1c[nH]c2ccccc12)C(=O)N[C@H](C(=O)N[C@H](C(=O)N[C@@H](Cc1cnc[nH]1)C(=O)N[C@@H](CCCNC(N)=O)C(=O)N[C@@H](CC(C)C)C(=O)N[C@@H](C)C(=O)NCC(=O)N[C@@H](CC(C)C)C(=O)N[C@@H](CC(C)C)C(=O)N[C@@H](CO)C(=O)N[C@@H](CCCNC(N)=O)C(=O)N[C@@H](CO)C(=O)NCC(=O)NCC(=O)N[C@H](C(=O)N[C@H](C(=O)N[C@@H](CCCCNC(=N)N)C(=O)N[C@@H](CCCCN)C(=O)N[C@@H](CC(N)=O)C(=O)N[C@@H](Cc1ccccc1)C(=O)N[C@H](C(=O)N1CCC[C@H]1C(=O)N[C@H](C(=O)N[C@@H](CC(=O)O)C(=O)N[C@H](C(=O)NCC(=O)N1CCC[C@H]1C(=O)N[C@@H](Cc1ccccc1)C(=O)N[C@@H](C)C(=O)N[C@@H](Cc1ccccc1)C(N)=O)C(C)C)[C@@H](C)O)C(C)C)C(C)C)C(C)C)[C@@H](C)O)C(C)C [compound 739]
Ki ([1]; Table 3A): 0.53 nM

CC(C)[C@H](NC(=O)[C@@H](CC(=O)O)NC(=O)[C@@H](NC(=O)[C@@H]1CCCN1C(=O)[C@@H](NC(=O)[C@@H](N)Cc1ccccc1)C(C)C)[C@@H](C)O)C(=O)NCC(=O)N1CCC[C@H]1C(=O)N[C@@H](Cc1ccccc1)C(=O)N[C@@H](C)C(=O)N[C@@H](Cc1ccccc1)C(N)=O [compound 719]
Ki ([1]; Table 3B): > 1000 nM

CC(=O)N[C@@H](Cc1c[nH]c2ccccc12)C(=O)N[C@H](C(=O)N[C@H](C(=O)N[C@@H](Cc1cnc[nH]1)C(=O)N[C@@H](CCCN=C(N)N)C(=O)N[C@@H](CC(C)C)C(=O)N[C@@H](C)C(=O)NCC(=O)N[C@@H](CC(C)C)C(=O)N[C@@H](CC(C)C)C(=O)N[C@@H](CO)C(=O)N[C@@H](CCCN=C(N)N)C(=O)N[C@@H](CO)C(=O)NCC(=O)NCC(=O)N[C@H](C(=O)N[C@H](C(=O)N[C@@H](CCCN=C(N)N)C(=O)N[C@@H](CCCCN)C(=O)N[C@@H](CC(N)=O)C(=O)N[C@@H](Cc1ccccc1)C(=O)N[C@H](C(=O)N1CCC[C@H]1C(=O)N[C@H](C(=O)N[C@@H](CC(=O)O)C(=O)N[C@H](C(=O)NCC(=O)N1CCC[C@H]1C(=O)N[C@@H](Cc1ccccc1)C(=O)N[C@@H](C)C(=O)N[C@@H](Cc1ccccc1)C(N)=O)C(C)C)[C@@H](C)O)C(C)C)C(C)C)C(C)C)[C@@H](C)O)C(C)C [SEQ ID NO:7]
time at which about 10% of the starting concentration remains [2]: ~2.5 h | half-life at 100 ng/ml [2, 5]: ~45 min | time at which about 10% of the starting concentration remains [3]: about 1 hours | half-life at 100 ng/ml [3, 6]: < 30 min

CC(C)C[C@H](NC(=O)CNC(=O)[C@H](C)NC(=O)[C@H](CC(C)C)NC(=O)[C@H](CCCNC(=N)N)NC(=O)[C@H](Cc1c[nH]cn1)NC(=O)[C@@H](NC(=O)[C@@H](NC(=O)[C@H](CO)NC(=O)[C@@H](NC(=O)[C@H](C)NC(=O)[C@@H](NC(=O)[C@H](CC(=O)O)NC(=O)[C@H](CO)NC(=O)[C@H](C)N)[C@@H](C)O)[C@@H](C)O)C(C)C)[C@@H](C)O)C(=O)N[C@@H](CC(C)C)C(=O)N[C@@H](CO)C(=O)N[C@@H](CCCNC(=N)N)C(=O)N[C@@H](CO)C(=O)NCC(=O)NCC(=O)N[C@H](C(=O)N[C@H](C(=O)N[C@@H](CCCCN)C(=O)N[C@@H](CC(N)=O)C(=O)N[C@@H](CC(N)=O)C(=O)N[C@@H](Cc1ccccc1)C(=O)N[C@H](C(=O)N1CCC[C@H]1C(=O)N[C@H](C(=O)N[C@@H](CC(N)=O)C(=O)N[C@H](C(=O)NCC(=O)N[C@@H](CO)C(=O)N[C@@H](CCCCN)C(=O)N[C@@H](C)C(=O)N[C@@H](Cc1ccccc1)C(N)=O)C(C)C)[C@@H](C)O)C(C)C)C(C)C)C(C)C [compound 709]
Ki ([1]; Table 3B): 12 nM

685 (Ac-WVTHRLAGLLSRSGGVVK(20 kDa PEG)NNFVPTDVGPFAF-NH2) [compound 685]
Ki ([1]; Table 3B): 155 nM

CC(=O)N[C@@H](Cc1c[nH]c2ccccc12)C(=O)N[C@H](C(=O)N[C@H](C(=O)N[C@@H](Cc1cnc[nH]1)C(=O)N[C@@H](CCCN=C(N)N)C(=O)N[C@@H](CC(C)C)C(=O)N[C@@H](C)C(=O)NCC(=O)N[C@@H](CC(C)C)C(=O)N[C@@H](CC(C)C)C(=O)N[C@@H](CO)C(=O)N[C@@H](CCCN=C(N)N)C(=O)N[C@@H](CO)C(=O)NCC(=O)NCC(=O)N[C@H](C(=O)N[C@H](C(=O)N[C@@H](CCCN=C(N)N)C(=O)N[C@@H](CCCCN)C(=O)N[C@@H](CC(N)=O)C(=O)N[C@@H](Cc1ccccc1)C(=O)N[C@H](C(=O)N1CCC[C@H]1C(=O)N[C@H](C(=O)N[C@@H](CC(=O)O)C(=O)N[C@H](C(=O)NCC(=O)N1CCC[C@H]1C(=O)N[C@@H](Cc1ccccc1)C(=O)N[C@@H](C)C(=O)N[C@@H](Cc1ccccc1)C(N)=O)C(C)C)[C@@H](C)O)C(C)C)C(C)C)C(C)C)[C@@H](C)O)C(C)C [compound 7]
IC50 (CGRP1 receptor; Table 3, unconjugated CGRP peptide analogs, n = 2-4, read-out: IC50): 0.13 nM | % Remaining ([2]; 100 ng/ml, 0 h): 100.0% | remaining at 0.5 h, 100 ng/ml ([2]; 100 ng/ml, 0.5 h): 55.4% | remaining at 1 h, 100 ng/ml ([2]; 100 ng/ml, 1 h): 34.5% | remaining at 2 h, 100 ng/ml ([2]; 100 ng/ml, 2 h): 8% | remaining at 3 h, 100 ng/ml ([2]; 100 ng/ml, 3 h): 5.2% | remaining at 4 h, 100 ng/ml ([2]; 100 ng/ml, 4 h): 1.4% | remaining at 5 h, 100 ng/ml ([2]; 100 ng/ml, 5 h): 1.7% | remaining at 6 h, 100 ng/ml ([2]; 100 ng/ml, 6 h): 0.6%

686 (Ac-WVTHRLAGLLSRSGGVVK(20 kDa PEG)NNFVPTDVGPFAF-NH2) [compound 686]
Ki ([1]; Table 3B): 1.33 nM

CC(=O)N[C@@H](Cc1c[nH]c2ccccc12)C(=O)N[C@H](C(=O)N[C@H](C(=O)N[C@@H](Cc1cnc[nH]1)C(=O)N[C@@H](CCCCNC(=N)N)C(=O)N[C@@H](CC(C)C)C(=O)N[C@@H](C)C(=O)NCC(=O)N[C@@H](CC(C)C)C(=O)N[C@@H](CC(C)C)C(=O)N[C@@H](CO)C(=O)N[C@@H](CCCCNC(=N)N)C(=O)N[C@@H](CO)C(=O)NCC(=O)NCC(=O)N[C@H](C(=O)N[C@H](C(=O)N[C@@H](CCCNC(=N)N)C(=O)N[C@@H](CCCCN)C(=O)N[C@@H](CC(N)=O)C(=O)N[C@@H](Cc1ccccc1)C(=O)N[C@H](C(=O)N1CCC[C@H]1C(=O)N[C@H](C(=O)N[C@@H](CC(=O)O)C(=O)N[C@H](C(=O)NCC(=O)N1CCC[C@H]1C(=O)N[C@@H](Cc1ccccc1)C(=O)N[C@@H](C)C(=O)N[C@@H](Cc1ccccc1)C(N)=O)C(C)C)[C@@H](C)O)C(C)C)C(C)C)C(C)C)[C@@H](C)O)C(C)C [SEQ ID NO:25]
reduced antagonist activity relative to the single-substitution analogs (CGRP1 receptor; non-PEGylated double substitution at R11 and R18): about 5 fold | time at which about 10% of the starting concentration remains [2]: about 5 hours | half-life at 100 ng/ml [2, 4]: ~90 min | time at which about 10% of the starting concentration remains [3]: about 2 hours | half-life at 100 ng/ml [3, 6]: ~30 min

Ac-WVTHRLAGLLSQSGGVVRKNFVPTDVGPFAF-NH2 [SEQ ID NO:37]
time at which about 10% of the starting concentration remains [2]: ~2.5 h | half-life at 100 ng/ml [2, 5]: ~45 min | time at which about 10% of the starting concentration remains [3]: about 1 hours | half-life at 100 ng/ml [3, 6]: < 30 min
